How the values were obtained:
Assay in all cases: cells
Set-up in all cases: species or system panel of human cancer cell lines; Eurofins OncoPanel proliferation; nuclei count by high-content fluorescence imaging, 10-point dose response
[1] = tested on: A101D; conditions: Homo sapiens, A101D, 72 h, cell count, 3 days
How it was run: (§1)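 Cells in RPMI 1640/10% FBS or special medium received compound the day after seeding, with a time-zero plate; 3-day incubation at 37°C, 5% CO2. Nuclei imaged by fluorescence microscopy; 10 half-log doses from 100 μM, 0.1% DMSO. EC50, IC50, GI50 and activity area (0–10) from curve fits.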

[2] = tested on: AN3 CA; conditions: Homo sapiens, AN3-CA, 72 h, cell count, 3 days
How it was run: as §1

[3] = tested on: CA46; conditions: Homo sapiens, CA46, 72 h, cell count, 3 days
How it was run: as §1

[4] = tested on: D341 Med; conditions: D341 Med, 72 h, cell count, 3 days
How it was run: as §1

[5] = tested on: DMS114; conditions: Homo sapiens, DMS-114, 72 h, cell count, 3 days
How it was run: as §1

[6] = tested on: Hs 578T; conditions: Homo sapiens, Hs-578T, 72 h, cell count, 3 days
How it was run: as §1

[7] = tested on: Hs 683; conditions: Homo sapiens, Hs 683, 72 h, cell count, 3 days
How it was run: as §1

[8] = tested on: L-428; conditions: Homo sapiens, L-428, 72 h, cell count, 3 days
How it was run: as §1

[9] = tested on: NCI-H292; conditions: Homo sapiens, NCI-H292, 72 h, cell count, 3 days
How it was run: as §1

[10] = tested on: NCI-H295R; conditions: Homo sapiens, NCI-H295R, 72 h, cell count, 3 days
How it was run: as §1

[11] = tested on: PSN-1; conditions: Homo sapiens, PSN1, 72 h, cell count, 3 days
How it was run: as §1

[12] = tested on: SK-UT-1; conditions: Homo sapiens, SK-UT-1, 72 h, cell count, 3 days
How it was run: as §1

[13] = tested on: SW1783; conditions: Homo sapiens, SW1783, 72 h, cell count, 3 days
How it was run: as §1

[14] = tested on: SW872; conditions: Homo sapiens, SW872, 72 h, cell count, 3 days
How it was run: as §1

[15] = 50% of maximum possible response

IC50 [9, 15]: 40.3 µM | GI50 ([9]; corrected for time zero): 34.4 µM | EC50 ([9]; curve inflection point): 40.3 µM | IC50 [10, 15]: 91.6 µM | GI50 ([10]; corrected for time zero): 57.1 µM | EC50 ([10]; curve inflection point): 91.6 µM | IC50 [12, 15]: 11.8 µM | GI50 ([12]; corrected for time zero): 9.1 µM | EC50 ([12]; curve inflection point): 11.8 µM | IC50 [13, 15]: 82.1 µM | GI50 ([13]; corrected for time zero): 35.6 µM | EC50 ([13]; curve inflection point): 82.1 µM | IC50 [14, 15]: 35.3 µM | GI50 ([14]; corrected for time zero): 28.9 µM | EC50 ([14]; curve inflection point): 35.3 µM
Compound: C[C@@H]1CC(=O)NN=C1c1ccc(NN=C(C#N)C#N)cc1 [levosimendan]
IC50 [1, 15]: 34.8 µM | GI50 ([1]; corrected for time zero): 26.6 µM | EC50 ([1]; curve inflection point): 34.8 µM | IC50 [2, 15]: 21.2 µM | GI50 ([2]; corrected for time zero): 11.6 µM | EC50 ([2]; curve inflection point): 21.2 µM | IC50 [3, 15]: 13.2 µM | GI50 ([3]; corrected for time zero): 11 µM | EC50 ([3]; curve inflection point): 13.2 µM | IC50 [4, 15]: 73.8 µM | GI50 ([4]; corrected for time zero): 39.6 µM | EC50 ([4]; curve inflection point): 73.8 µM | IC50 [5, 15]: 50.7 µM | GI50 ([5]; corrected for time zero): 18.9 µM | EC50 ([5]; curve inflection point): 50.7 µM | IC50 [6, 15]: > 100 µM | GI50 ([6]; corrected for time zero): > 100 µM | EC50 ([6]; curve inflection point): 48 µM | IC50 [7, 15]: > 100 µM | GI50 ([7]; corrected for time zero): > 100 µM | EC50 ([7]; curve inflection point): 51.2 µM | IC50 [8, 15]: 69.2 µM | GI50 ([8]; corrected for time zero): 53.1 µM | EC50 ([8]; curve inflection point): 69.2 µM | IC50 [11, 15]: 12.8 µM | GI50 ([11]; corrected for time zero): 11.6 µM | EC50 ([11]; curve inflection point): 11.8 µM

Source: paper PMC6576746, “Rational discovery of dual-indication multi-target PDE/Kinase inhibitor for precision anti-cancer therapy using structural systems pharmacology” (PLoS Computational Biology, 2019)
